Values of other authors as cited in patent US6436449B2, “Use of a composition” (priority 2000, dated 2002).

Columns and labels:
[1] = tested on: blood platelets; conditions: in vitro; US 4,543,212
[2] = tested on: burn eschars; conditions: mice; US 4,543,212
[3] = injected into mice; US 4,543,212

## xeronine
[1]
  aggregation of blood platelets by adenosine diphosphate: inhibited
[2]
  debridement of burn eschars: caused the debridement of burn eschars
[3]
  anti-inflammatory action: excellent anti-inflammatory agents
